# Source: patent publication US12617747B2, “Cannabinoid analogs and methods for their preparation” (InMed Pharmaceuticals Inc., priority 2018, dated 2026)
# Target: T1, human CB2 receptor (Homo sapiens, UniProt P34972)
# T1 construct: HA; expressed in transfected cells
# Test: CB2 receptor agonist activity in AtT20 cells stably expressing HA-tagged human CB2 receptors
# Assay type: cell-based
# Conditions: method of Udoh et al. 2019
# From the text: The activity of 5-fluorocannabichromene (5F-CBC) was studied in AtT20 cells stably expressing HA-tagged human CB1 and CB2 receptors, as described by Udoh, et al. (“Cannabichromene is a cannabinoid CB2 receptor agonist.” British Journal of Pharmacology, 2019, doi: 10.1111/bph.14815).
# T1 sequence (P34972 whole entry): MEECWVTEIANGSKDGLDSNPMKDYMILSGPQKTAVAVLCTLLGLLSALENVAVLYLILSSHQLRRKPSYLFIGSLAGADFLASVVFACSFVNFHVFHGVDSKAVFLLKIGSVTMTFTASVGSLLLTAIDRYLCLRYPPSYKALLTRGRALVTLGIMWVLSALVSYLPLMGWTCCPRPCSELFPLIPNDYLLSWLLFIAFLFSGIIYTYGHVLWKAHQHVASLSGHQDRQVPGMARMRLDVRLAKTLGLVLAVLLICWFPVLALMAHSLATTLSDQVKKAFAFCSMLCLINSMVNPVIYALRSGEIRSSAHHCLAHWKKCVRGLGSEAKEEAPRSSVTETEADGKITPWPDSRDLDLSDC
smiles,measurement,value
"CC(C)=CCCC1(C)C=Cc2c(O)cc(CCCCCF)cc2O1 (stereo not shown) [5F-CBC, 7-(5-fluoropentyl)-2-methyl-2-(4-methyl-pent-3-enyl)-2H-chromen-5-ol]",EC50,2.1 µM
